Read-outs that look alike come from different tables or passages of the source.
Assays:
serpina3 = assay: Real-time quantitative PCR of PLsis marker gene expression; assay type: cell-based, human; conditions: HepG2 cells, 24 hr exposure, relative value, control group = 1.0, GAPDH internal standard, n=3
Procedure: (§1) Using RNeasy Mini Kit (QIAGEN), total RNA was purified from the cells, and cDNA was synthesized in a 100 μL system using TaqMan Reverse Transcription Reagents (PE Applied Biosystems).
(§2) As the primer for glyceraldehyde-3-phosphoric acid dehydrogenase (GAPDH) and VIC labeled probe, those attached to TaqMan GAPDH Control Reagents (PE Applied Biosystems) were used.
(§3) Using 100 μL of the reaction mixture containing 5 μL of cDNA (1×TaqMan Universal PCR Master Mix (PE Applied Biosystems), 200 nM forward primer, 200 nM reverse primer and 200 nM TaqMan probe), 40 cycles of (1 cycle=95° C., 15 sec; 60° C., 1 min) PCR were performed. PCR and fluorescence detection were performed using ABI PRISM Sequence Detector 7000 (PE Applied Biosystems). As the internal standard, GAPDH was used to amend the measurement values. For the determination of significant difference, t-test was used (n=3).
(§4) For each test compound, the expression variation rate of 12 genes each relative to the control group was determined.

fabp1 = assay: as above; assay type: cell-based, human; conditions: HepG2 cells, 24 hr exposure, relative value, control group = 1.0, GAPDH internal standard, n=3
Procedure: as §1, §2, §3, §4

slc2a3 = assay: as above; assay type: cell-based, human; conditions: HepG2 cells, 24 hr exposure, relative value, control group = 1.0, GAPDH internal standard, n=3
Procedure: as §1, §2, §3, §4

nr0b2 = assay: as above; assay type: cell-based, human; conditions: HepG2 cells, 24 hr exposure, relative value, control group = 1.0, GAPDH internal standard, n=3
Procedure: as §1, §2, §3, §4

flj22362 = assay: as above; assay type: cell-based, human; conditions: HepG2 cells, 24 hr exposure, relative value, control group = 1.0, GAPDH internal standard, n=3
Procedure: as §1, §2, §3, §4

kiaa1001 = assay: as above; assay type: cell-based, human; conditions: HepG2 cells, 24 hr exposure, relative value, control group = 1.0, GAPDH internal standard, n=3
Procedure: as §1, §2, §3, §4

depp = assay: as above; assay type: cell-based, human; conditions: HepG2 cells, 24 hr exposure, relative value, control group = 1.0, GAPDH internal standard, n=3
Procedure: as §1, §2, §3, §4

tagln = assay: as above; assay type: cell-based, human; conditions: HepG2 cells, 24 hr exposure, relative value, control group = 1.0, GAPDH internal standard, n=3
Procedure: as §1, §2, §3, §4

mgc4171 = assay: as above; assay type: cell-based, human; conditions: HepG2 cells, 24 hr exposure, relative value, control group = 1.0, GAPDH internal standard, n=3
Procedure: as §1, §2, §3, §4

asah1 = assay: as above; assay type: cell-based, human; conditions: HepG2 cells, 24 hr exposure, relative value, control group = 1.0, GAPDH internal standard, n=3
Procedure: as §1, §2, §3, §4

hpn = assay: as above; assay type: cell-based, human; conditions: HepG2 cells, 24 hr exposure, relative value, control group = 1.0, GAPDH internal standard, n=3
Procedure: as §1, §2, §3, §4

lss = assay: as above; assay type: cell-based, human; conditions: HepG2 cells, 24 hr exposure, relative value, control group = 1.0, GAPDH internal standard, n=3
Procedure: as §1, §2, §3, §4

HepG2 cells [1] = assay: Electron-microscopic examination of PLsis induction potential (myelin-like structure)
Text: Using 30 kinds of the following commercially available drugs as test compounds, the level of PLsis induction potential was examined with the emergence of an intracellular myelin-like structure or a structure having a high electron density, which is an early image thereof, as an index by electronmicroscopic observation.
HepG2 cells (purchased from ATCC) were exposed to the test compound by a conventional method. HepG2 cells used were of the cell growth phase. The attached HepG2 cells were washed twice with. Dulbecco's phosphate buffered saline (calcium and magnesium salt free; PBS(−))(Dainippon Pharmaceutical Co., Ltd.) containing 0.05 w/v % EDTA, detached with a cell dissociation solution of 0.25 vol % trypsin-1 mmol/L EDTA (Gibco BRL) diluted 2-fold with PBS(−), centrifuged to remove the supernatant, and adjusted to a concentration of 2×10^5 cells/250 μL with a culture medium [Dulbecco's modified Eagle medium (DMEM)(Gibco BRL) supplemented with 50 U/mL penicillin (Gibco BRL)-[…] streptomycin (Gibco BRL) and 5 vol % FBS (Bio whittaker)]. DMSO alone or a culture medium containing the above-mentioned test compound in DMSO solution was dispensed to a well by 250 μL, the above-mentioned cell suspension (250 μL) was added, and cultured in a CO2 incubator (7100; Napco) under an atmosphere of 5% CO2—95% air at 37° C.
After culture for 72 hr, the culture medium was removed, and the cells were fixed with 1 w/v % glutaraldehyde solution. After fixing with 2 w/v % osmic acid for 2 hr by a conventional method and dehydrating with an alcohol series, the cells were embedded in a resin (Quetol 812). Ultrathin slices were prepared and, after electron staining, observed with an electron microscope (H-300; Hitachi) and photographed in 3 or more pictures per each sample (magnification ×5000). The processing after post-fixation was performed by Applied Medical Research.

HepG2 cells [2] = assay: Highest concentration at which cells were viable after 72 hr exposure; assay type: cell-based, human

Row | SMILES | expression variation rate serpina3 (serpina3) | expression variation rate fabp1 (fabp1) | expression variation rate slc2a3 (slc2a3) | expression variation rate nr0b2 (nr0b2) | expression variation rate flj22362 (flj22362) | expression variation rate kiaa1001 (kiaa1001) | expression variation rate depp (depp) | expression variation rate tagln (tagln) | expression variation rate mgc4171 (mgc4171) | expression variation rate asah1 (asah1) | expression variation rate hpn (hpn) | expression variation rate lss (lss) | frequency of appearance of myelin-like structure (HepG2 cells [1]) | frequency of appearance of myelin-like structure (HepG2 cells [1]; HepG2 cells, 72 hr culture, electron microscopy, blind test n=4, addition concentration 8.3 or 25 μmol/L) | frequency of appearance of myelin-like structure (HepG2 cells [1]; HepG2 cells, 72 hr, electromicroscopic test, class symbols in head of Table 2) | addition concentration (highest concentration at which cells survived after 72 hr of culture) (HepG2 cells [2]) [µmol/L]
1 | Clc1ccccc1CNCC1CCC(CNCc2ccccc2Cl)CC1 (stereo not drawn) [AY-9944] | 1.97 | 3.16 | 0.22 | 2.71 | 1.45 | 1.68 | 3.32 | 0.21 | 1.63 | 4.71 | 2.68 | 4.78 | ++ |  |  | 8.3
2 | CC(=O)Nc1ccc(O)cc1 [acetaminophen] | 0.99 | 1.11 | 1.50 | 0.69 | 1.02 | 1.13 | 0.94 | 0.93 | 0.75 | 1.18 | 1.10 | 0.91 |  |  |  | 25
3 | CCCCc1oc2ccccc2c1C(=O)c1cc(I)c(OCCN(CC)CC)c(I)c1 [amiodarone] | 1.17 | 2.01 | 0.35 | 1.35 | 1.07 | 1.56 | 1.12 | 0.56 | 1.32 | 1.69 | 2.15 | 1.82 | ++ |  |  | 8.3
4 | CN(C)CCC=C1c2ccccc2CCc2ccccc21 [amitriptyline] | 3.01 | 2.39 | 0.22 | 1.64 | 1.80 | 2.11 | 5.08 | 0.23 | 2.22 | 3.10 | 2.20 | 1.79 | +++ |  |  | 25
5 | CN1CCN(C(c2ccccc2)c2ccc(Cl)cc2)CC1 (stereo not drawn) [chlorcyclizine] | 2.23 | 2.62 | 0.20 | 2.46 | 2.96 | 2.47 | 3.24 | 0.30 | 2.43 | 3.23 | 2.97 | 2.98 | +++ |  |  | 25

More lines, main results first:

Row | expression variation rate serpina3 (serpina3) | expression variation rate fabp1 (fabp1) | expression variation rate slc2a3 (slc2a3) | expression variation rate nr0b2 (nr0b2) | expression variation rate flj22362 (flj22362) | expression variation rate kiaa1001 (kiaa1001) | expression variation rate depp (depp) | expression variation rate tagln (tagln) | expression variation rate mgc4171 (mgc4171) | expression variation rate asah1 (asah1) | expression variation rate hpn (hpn) | expression variation rate lss (lss) | frequency of appearance of myelin-like structure (HepG2 cells [1]) | frequency of appearance of myelin-like structure (HepG2 cells [1]; HepG2 cells, 72 hr culture, electron microscopy, blind test n=4, addition concentration 8.3 or 25 μmol/L) | frequency of appearance of myelin-like structure (HepG2 cells [1]; HepG2 cells, 72 hr, electromicroscopic test, class symbols in head of Table 2) | SMILES | addition concentration (highest concentration at which cells survived after 72 hr of culture) (HepG2 cells [2]) [µmol/L]
6 | 1.94 | 2.56 | 0.43 | 1.20 | 1.70 | 1.90 | 2.95 | 0.65 | 1.74 | 1.29 | 1.70 | 1.99 | ++ |  |  | CN(C)CCCN1c2ccccc2Sc2ccc(Cl)cc21 [chlorpromazine] | 8.3
7 | 1.39 | 0.91 | 0.86 | 0.78 | 1.00 | 1.48 | 0.93 | 0.86 | 1.18 | 1.55 | 0.96 | 0.65 | − |  |  | CC[C@H]1OC(=O)[C@H](C)[C@@H](O[C@H]2C[C@@](C)(OC)[C@@H](O)[C@H](C)O2)[C@H](C)[C@@H](O[C@@H]2O[C@H](C)C[C@H](N(C)C)[C@H]2O)[C@](C)(OC)C[C@@H](C)C(=O)[C@H](C)[C@@H](O)[C@]1(C)O [clarithromycin] | 25
8 | 1.96 | 3.89 | 0.24 | 1.97 | 1.92 | 3.34 | 5.15 | 0.24 | 1.88 |  | 2.35 |  | ++ |  |  | CN1CCN(C2=Nc3cc(Cl)ccc3Nc3ccccc32)CC1 [clozapine] | 25
9 | 2.12 | 2.45 | 0.15 | 3.41 | 1.80 | 2.11 | 3.36 | 0.15 | 1.81 | 4.52 | 2.32 | 2.69 |  |  |  | CN(C)CCCN1c2ccccc2CCc2ccccc21 [imipramine] | 25
10 |  |  |  |  |  |  |  |  |  |  |  |  |  | mild | + | CCOC(=O)N1CCC(=C2c3ccc(Cl)cc3CCc3cccnc32)CC1 [loratadine] | 8.3
11 | 2.12 | 0.15 | 0.50 | 1.83 | 2.49 | 1.82 | 2.88 | 0.68 | 0.73 | 0.93 | 2.50 | 0.52 |  |  |  | N=C(N)c1ccc(OCCCCCOc2ccc(C(=N)N)cc2)cc1 [pentamidine] | 8.3
12 |  | 1.38 | 0.37 |  |  |  |  | 0.63 |  | 1.43 |  |  | − |  |  | C=C[C@H]1C[N@@]2CC[C@H]1C[C@@H]2[C@@H](O)c1ccnc2ccc(OC)cc12 [quinidine] | 25

From US20070218460A1, “Method of Estimating Toxicity of Drug” (TAKEDA PHARMACEUTICAL COMPANY LIMITED, priority 2003, published 2007)
